Series [1] concerns total cholesterol. Nature of the series: in vivo screen designated APCC (total cholesterol in rats on PCC diet). On the set-up: species or system male Sprague-Dawley rats. The settings on record: Rattus norvegicus, PCC diet overnight, read-out: APCC (%ΔTC): percent change in total cholesterol between control and drug-treated animals. From the text: In one in vivo screen designated APCC, male Sprague-Dawley rats (200 to 225 g) were randomly divided into treatment groups and dosed at 4 PM with either vehicle (CMC/Tween) or suspensions of compounds in vehicle. The normal chow diet was then replaced with the PCC diet (5.5% peanut oil, 1.5% cholesterol, and 0.5% cholic acid). The rats consumed this diet ad libitum during the night and were sacrificed at 8 AM to obtain blood samples for cholesterol analysis using standard procedures. Statistical differences between mean cholesterol values for the same vehicle were determined using analysis of variance followed by Fisher's least significant test. The results of this trial for representative compounds of the present invention appear in Table II wherein percent change means the difference in total cholesterol between control, and the drug-treated animals.

The test system of series [2] is adrenal gland. Nature of the series: in vivo toxicity screen in guinea pigs (adrenal histopathology). Also noted: species or system male guinea pigs of the Hartley strain. The settings on record: 100 mg/kg daily by gavage, 2 weeks; for adrenal toxicity class: oleic acid vehicle. How it is done:
The nontoxic nature of representative compounds of the present invention was measured and compared against previously disclosed tetrazole urea ACAT inhibitors using an in vivo toxicity screen developed by Dominick, et al., 1993. Male guinea pigs of the Hartley strain (450-500 g) were obtained from Charles River and randomly divided into treatment groups. They were fed standard guinea pig chow ad libitum and dosed daily (AM) by gavage (100 mg/kg). The test compounds were dissolved or suspended in an oleic acid vehicle to facilitate absorption. After 2 weeks the animals were sacrificed by CO2 asphyxiation in the nonfasted state 16 hours after the last dose. Adrenal glands were weighed, fixed in 10% formalin, processed by routine paraffin techniques, sectioned, and then stained with hematoxylin and eosin for light microscopy. Toxicity was defined by the incidence, severity, and complexity of adrenal histopathologic alterations in the zona fasciculata (e.g., adrenal cortical atrophy, increased coarse vacuolation, single cell necrosis, inflammatory cell infiltrates, mineralization/ectopic bone formation, and increased cytoplasmic eosinophilia).

For the compound `CC(C)c1cccc(C(C)C)c1NC(=O)N(c1ccccc1)c1nnn(CCCCCCCCOC2CCCCO2)n1` (racemic) [Example 10, (±)N'-[2,6-bis(1-methylethyl)phenyl]-N-phenyl-N-[2-[8-[(tetrahydro-2H-pyran-2-yl)oxy]octyl]-2H-tetrazol-5-yl]-urea], the change in vivo at 30 mg/kg in series [1] is -42%.
On to `COc1cc(OC)c(NC(=O)N(c2ccccc2)c2nnn(CCCCCCCCOC3CCCCO3)n2)c(OC)c1` (racemic) [Example 11, (±)N-phenyl-N-[2-[8-[(tetrahydro-2H-pyran-2-yl)oxy]octyl]-2H-tetrazol-5-yl]-N'-(2,4,6-trimethoxyphenyl)-urea], for which the change in vivo at 30 mg/kg in series [1] is -50%.
Take `O=C(Nc1ccc(F)cc1F)N(c1ccccc1)c1nnn(CCCCCCCCOC2CCCCO2)n1` (racemic) [Example 12, (±)N'-(2,4-difluorophenyl)-N-phenyl-N-[2-[8-[(tetrahydro-2H-pyran-2-yl)oxy]octyl]-2H-tetrazol-5-yl]-urea]: the change in vivo at 30 mg/kg in series [1] is -37%.
Take `CCCCCCCCCCCCn1nnc(N(C(=O)Nc2c(C(C)C)cccc2C(C)C)c2ccccc2)n1` [Example 1, N'-[2,6-Bis(1-methylethyl)phenyl]-N-(2-dodecyl-2H-tetrazol-5-yl)-N-phenyl-urea]: in series [1], the change in vivo at 30 mg/kg is -52%.
For the compound `CCCCCCCCCCCCn1nnc(N(C(=O)Nc2c(OC)cc(OC)cc2OC)c2ccccc2)n1` [Example 2, N-(2-dodecyl-2H-tetrazol-5-yl)-N-phenyl-N'-(2,4,6-trimethoxyphenyl)-urea], the change in vivo at 30 mg/kg in series [1] is -74%.
Take `CCCCCCCCCCCCn1nnc(N(C(=O)Nc2ccc(F)cc2F)c2ccccc2)n1` [Example 3, N'-(2,4-Difluorophenyl)-N-(2-dodecyl-2H-tetrazol-5-yl)-N-phenyl-urea]: the change in vivo at 30 mg/kg in series [1] is -63%.
Still for that read-out and setting: for `CCCCCCCCCCCCn1nnc(N(C(=O)Nc2c(C(C)C)cccc2C(C)C)C2CCCCC2)n1` [Example 4, N'-[2,6-bis(1-methylethyl)phenyl]-N-cyclohexyl-N-(2-dodecyl-2H-tetrazol-5-yl)-urea] the value was -10%.
Take `CCCCCCCCCCCCn1nnc(N(C(=O)Nc2c(OC)cc(OC)cc2OC)C2CCCCC2)n1` [Example 5, N-cyclohexyl-N-(2-dodecyl-2H-tetrazol-5-yl)-N'-(2,4,6-trimethoxyphenyl)-urea]: in series [1], the change in vivo at 30 mg/kg is -67%. In addition, in series [2], the “drug related adrenal changes” value is on record as “no drug related adrenal changes” and the adrenal toxicity class entry is on record as “nontoxic to the adrenal gland”.
As to `CCCCCCCCCCCCn1nnc(N(C(=O)Nc2ccc(F)cc2F)C2CCCCC2)n1` [Example 6, N-Cyclohexyl-N'-(2,4-difluorophenyl)-N-(2-dodecyl-2H-tetrazol-5-yl)-urea], the change in vivo at 30 mg/kg in series [1] was -33%.
For the compound `CCCCCCCCCCCCCCn1nnc(N(C(=O)Nc2c(OC)cc(OC)cc2OC)c2ccccc2)n1` [Example 7, N-phenyl-N-(2-tetradecyl-2H-tetrazol-5-yl)-N'-(2,4,6-trimethoxyphenyl)-urea], the change in vivo at 30 mg/kg in series [1] was -22%.
Regarding `CCCCCn1nnc(N(C(=O)Nc2c(OC)cc(OC)cc2OC)c2ccccc2)n1` [Example 8, N-(2-pentyl-2H-tetrazol-5-yl)-N-phenyl-N'-(2,4,6-trimethoxyphenyl)-urea], in series [1], the change in vivo at 30 mg/kg was -43%.
In the case of `CCCCCCCCCCCCn1nnc(CN(Cc2ccccc2)C(=O)Nc2c(OC)cc(OC)cc2OC)n1` [Example 9, N-(2-Dodecyl-2H-tetrazol-5-ylmethyl)-N-(phenylmethyl)-N'-(2,4,6-trimethoxyphenyl)-urea], in series [1], the change in vivo at 30 mg/kg was -49%.
Take `CC(C)c1cccc(C(C)C)c1NC(=O)N(c1ccccc1)c1nnn(CCCCCCCCO)n1` [Example 13, N'-[2,6-Bis(1-methylethyl)phenyl]-N-[2-(8-hydroxyoctyl)-2H-tetrazol-5-yl]-N-phenyl-urea]: the change in vivo at 30 mg/kg in series [1] is -17%.
Still for that read-out and setting: for `COc1cc(OC)c(NC(=O)N(c2ccccc2)c2nnn(CCCCCCCCO)n2)c(OC)c1` [Example 14, N-[2-(8-hydroxyoctyl)-2H-tetrazol-5-yl]-N-phenyl-N'-(2,4,6-trimethoxyphenyl)-urea] the value was -15%.
For `CC(C)c1cccc(C(C)C)c1NC(=O)N(c1ccccc1)c1nnn(CCCCCCCC=O)n1` [Example 15, N'-[2,6-bis(1-methylethyl)phenyl]-N-[2-(8-oxooctyl)-2H-tetrazol-5-yl]-N-phenyl-urea], the change in vivo at 30 mg/kg in series [1] is -29%.
On to `COc1cc(OC)c(NC(=O)N(c2ccccc2)c2nnn(CCCCCCCC=O)n2)c(OC)c1` [Example 16, N-[2-(8-oxooctyl)-2H-tetrazol-5-yl]-N-phenyl-N'-(2,4,6-trimethoxyphenyl)-urea], for which the change in vivo at 30 mg/kg in series [1] was -8%.
With `CCN(CC)CCCCCCCCn1nnc(N(C(=O)Nc2c(C(C)C)cccc2C(C)C)c2ccccc2)n1` [Example 17, N'-[2,6-bis(1-methylethyl)phenyl]-N-[2-[8-(diethylamino)octyl]-2H-tetrazol-5-yl]-N-phenyl-urea], in series [1], the change in vivo at 30 mg/kg is -30%.
For `CCCCCCCCCCCCn1nnc(NC(=O)Nc2c(C(C)C)cccc2C(C)C)n1` [N-[2,6-bis(1-methylethyl)-phenyl]-N'-(2-dodecyl-2H-tetrazol-5-yl)-urea], in series [2], the “cytotoxic zonal atrophy of the zona fasciculata (treated animals affected)” value was 3/6, the “increased coarse vacuoles (animals affected)” value is 5/6, the “inflammatory cell infiltrates (animals affected)” value is listed as 2/6 and the “necrosis of the adrenal cortex (animals affected)” value is 2/6. Moreover, in series [2], the adrenal toxicity class entry was “highly toxic to the adrenal gland”.
As for `CCCCCCCCCCCCCn1nnc(NC(=O)Nc2c(C(C)C)cccc2C(C)C)n1` [N-[2,6-bis(1-methylethyl)-phenyl]-N'-(2-tridecyl-2H-tetrazol-5-yl)-urea], in series [2], the “cytotoxic zonal atrophy of the zona fasciculata (treated animals affected)” value is reported as 4/6, the “increased coarse vacuoles (animals affected)” value was 5/6, the “inflammatory cell infiltrates (animals affected)” value is given as 2/6 and the “necrosis of the adrenal cortex (animals affected)” value is 3/6. In addition, the adrenal toxicity class entry in series [2] is “highly toxic to the adrenal gland”.

The values above are taken from patent publication US5362744A, “Tetrazole-substituted urea acat inhibitors” (Warner-Lambert Company, priority 1993, dated 1994).
